The values that follow are results of earlier work, collected in patent US7875639B2, “Compounds as cannabinoid receptor ligands and uses thereof” (priority 2006, dated 2011).

One data set has as its system microglia. The note with it: in vitro.
For data set [1] the following is noted: at fully efficacious doses.
The subject of another data set is rodent models. The note with it: rodent models of neuropathic, incisional, and both chronic and acute inflammatory pain.
The subject of data set [2] is apolipoprotein F knockout mice. The note with it: low doses.
Data set [3] concerns CB1I receptor knockout mice. The note with it: CB1 receptor knockout mice.
The test system of the next data set is rat. The note with it: rat formalin model of persistent pain.
The test system of the next data set is animal models. The note with it: animal models of acute thermal pain, persistent pain, inflammatory pain and neuropathic pain.
The subject of a further data set is mice. The note with it: model for post-menopausal osteoporosis.

Regarding `CCCC(C)(C)c1ccc2c(c1)OC(C)(C)[C@@H]1CC=C(C)C[C@@H]21` [JWH-133], in the data set with microglia, the “β-amyloid-induced microglial activation and neurotoxicity” value is “abrogated β-amyloid-induced microglial activation and neurotoxicity”.
Consider `COc1ccc2c(c1)c(CCN1CCOCC1)c(C)n2C(=O)c1cccc(Cl)c1Cl` [GW405833], for which the “typical CB1 receptor-mediated CNS side effects” value in data set [1] is listed as “devoid of typical CB1 receptor-medicated CNS side effects”. For the same compound, the “efficacy in pain models” value in the data set on rodent models is “is efficacious”.
Regarding (−)-Δ^9-Tetrahydrocannabinol [Δ^9-THC], the “progression of atherosclerotic lesions” value in [2] is reported as “slowed the progression of atherosclerotic lesions”. Moreover, the analgesic efficacy entry in data set [3] was “retains some analgesic efficacy”.
With `CCCCCCC(C)(C)c1cc(OC)c([C@@H]2C=C(CO)[C@@H]3C[C@H]2C3(C)C)c(OC)c1` [HU-308], the antinociceptive response result in the data set with rat was “elicits an antinociceptive response”.
For `CN1CCCCC1Cn1cc(C(=O)c2cc([N+](=O)[O-])ccc2I)c2ccccc21` (stereo not shown) [AM-1241], in data set [1], the “typical CB1 receptor-mediated CNS side effects” value is “devoid of typical CB1 receptor-medicated CNS side effects”. In the data set on animal models, the analgesic efficacy result is recorded as “exhibits robust analgesic efficacy”.
SR144528: in the data set with osteoclast, the osteoclast activity entry is given as “inhibit osteoclast activity”. Moreover, the ovariectomy-induced bone loss result with mice is listed as “reverse ovariectomy-induced bone loss”.
